Test systems include SF-539; OVCAR-3; DU-145; BT-549; OVCAR-5; SK-MEL-28; T47D; UO-31; HCT-116; 786-0; M14; CAKI-1; ACHN; SN12C; NCI-H226; K562; PC-3; A498; UACC-257; EKVX.
What all share (experiment): NCI tumour cell line growth inhibition, 48 h

The text below walks through data of ChEMBL document CHEMBL1201862, “PubChem BioAssay data set” (2004).

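Assay format: 96-well plates, 48-hour exposure. GI50 = concentration required for 50% inhibition of growth.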 Active and inactive are the calls of the source. Cut-off read from the data, not from the text of the source: active = GI50 up to about 1.1 µM and inactive = higher. A value given as a limit tells only on which side of the number the result lay.

Consider `N=C(N)c1ccc2oc3ccc(C(=N)N)cc3c(=O)c2c1`, for which the GI50 with SF-539, in the test on OVCAR-3, in the test on DU-145, with BT-549, in the test on OVCAR-5 and with SK-MEL-28 was > 100 µM (inactive) each time. Besides, the GI50 in the test with T47D, in the test with UO-31, in the test with HCT-116, in the test with 786-0, in the test with M14 and in the test on CAKI-1 was > 100 µM (inactive) throughout. Besides, the GI50 in the test on ACHN, with SN12C, in the test with NCI-H226, with K562, with PC-3 and with A498 was > 100 µM (inactive) throughout. For the same molecule, the GI50 with UACC-257 was > 100 µM (inactive).

In the case of `COc1cc(C2c3cc4c(cc3OC(NNC(N)=S)C2C)OCO4)cc(OC)c1OC` (stereo unspecified), the GI50 in the test with SF-539 is 0.199 µM (active); in the test with OVCAR-3 it was 0.349 µM (active); in the test with DU-145, 4.17 µM (inactive); in the test with BT-549, 0.804 µM (active); in the test on SK-MEL-28, 0.524 µM (active); in the test on T47D, 26.1 µM (inactive). Besides, the GI50 with UO-31 was 0.931 µM (active); with HCT-116, 0.244 µM (active); in the test on 786-0, 0.398 µM (active); in the test with M14, 0.351 µM (active); in the test on CAKI-1 it was 0.54 µM (active); in the test with EKVX, 22.5 µM (inactive). Also, the GI50 in the test on ACHN was 0.989 µM (active); with SN12C, 1.03 µM (active); with NCI-H226, 0.721 µM (active); in the test with K562 it was 0.242 µM (active); in the test on PC-3 it was 0.302 µM (active); in the test on A498 it was 0.191 µM (active). Moreover, in the test with UACC-257, the GI50 was 1.93 µM (inactive).

For `Cn1cnc(N)c(N=O)c1=O`, the GI50 with SF-539, with OVCAR-3, in the test on DU-145, with BT-549, with OVCAR-5 and in the test on SK-MEL-28 was > 10 µM (inactive) each time. The GI50 in the test on T47D, in the test with HCT-116, in the test with 786-0, with M14, with CAKI-1 and with EKVX was > 10 µM (inactive) in each case. Further, the GI50 with ACHN, with SN12C, with NCI-H226, with K562, in the test on PC-3 and in the test on A498 was > 10 µM (inactive) in each case. Also, the GI50 in the test on UACC-257 was > 10 µM (inactive).

`O=C1COC(c2ccccc2O)=NN1CCCN1CCCC1`: the GI50 in the test on SF-539, in the test with OVCAR-3, with DU-145, with BT-549, with OVCAR-5 and in the test with SK-MEL-28 was > 100 µM (inactive) throughout. Also, the GI50 with T47D, with UO-31, in the test on HCT-116, in the test on 786-0, in the test with M14 and with CAKI-1 was > 100 µM (inactive) in each case. The GI50 with EKVX, in the test on ACHN, with SN12C, in the test on NCI-H226, in the test with PC-3 and in the test on A498 was > 100 µM (inactive) throughout. The GI50 in the test with UACC-257 is > 100 µM (inactive).
